The test system of one test is Nitrosomonas europaea. As to the kind of experiment: Nitrification inhibition assay with Nitrosomonas europaea (nitrite level after 24 h). The settings on record: Nitrosomonas europaea; for activity at 100 µM: 24 h, read-out: Nitrification (%) at tested concentration (0 = maximum activity). Type of test: cell-based. The method, then:
(§1) The compounds of formula (I) and (II) and (III)/(IV) were tested for their nitrification inhibition effect in two screens, using assays with the nitrifying bacteria N. europaea and N. multiformis. In practice, ammonium and candidate nitrification inhibitors (at 100 μM) were added to a dense bacterial culture in multiwell culture plates and after 24 h of incubation, the nitrite level was measured. To normalize for differences between batches of cultures and multiwell culture plates, for each well a relative nitrification was calculated that was normalized towards both the negative and positive controls (see “Material and Methods” below for full details).
(§2) Nitrite (NO2−) was measured using the Griess reagent (Product number: G4410, Griess reagent (modified), Sigma-Aldrich). Equal volumes of the sample or a diluted sample and the Griess reagent were mixed a transparent flat bottom multi-well plate and incubated in the dark at room temperature for 10 minutes. Absorbance values at 540 nm were measured spectrophotometrically (EnVision, Perkin Elmer®) and used to calculate the [NO2−] by use of a standard curve.
To prepare a high-throughput nitrification inhibition assay using N. europaea, late-log phase cultures were subcultivated two days before the assay. Just before the assay, the cultures were 5 times overconcentrated with fresh growth medium after centrifugation (4000 rpm, 15 min, 5° C.) in 50 mL centrifuge tubes (Cat. No. 430829, CentriStar™ Conical Centrifuge Tubes, Corning®). Per batch, all the cultures were pooled in one sterile Schott bottle and subsequently dispensed into 384-well plates (Cat. No. 781086, CELL-STAR® plate, Greiner Bio-One; 50 μl/well) by use of a dispenser (Multidrop™ Combi Reagent Dispenser, Thermo Scientific™) that was first flushed with growth medium. Specifically for the high-throughput screen for new nitrification inhibitors, 0.5 μl of 99.99% DMSO (negative control—final concentration 1%) was added to the outer two columns on the left side of the plate and 0.5 μl of 10 mM DMP (3,4-dimethylpyrazole, positive control—final concentration 100 μM) was added to the outer two columns on the right side manually. Finally, 0.5 μl of candidate nitrification inhibitors (5 mM stock solutions in 99.99% DMSO—final concentration 50 μM) were added to the central wells using a pin tool on a Tecan robot (Freedom EVO®, Tecan). In between additions, the pins were washed in sequence with 99.5% DMSO, MilliQ water and 100% ethanol and air-dried. All plates were separately wrapped in Parafilm. Stacks of 4 plates were put on top of a 96-well plate filled with 100 μl MilliQ per well, covered with aluminum foil and shaken at 150 rpm at 28° C. 24 h later, NO2− production was assessed. For this, the samples were first 200 times diluted by pipetting 1.5 μl of samples into 300 μl of fresh growth medium in intermediate plates (Cat. No. 353077, Falcon® 96-well Clear Round Bottom Microplate, Corning®), to then mix 15 μl of the diluted samples with 15 μl Griess reagent in the wells of a transparent, flat bottom 384-well plate (Cat. No. X^7001, Low Profile Microplate, Molecular Devices) that was measured spectrophotometrically at 540 nm (EnVision, Perkin Elmer®).
(§3) To assess the efficacy of the compounds (in terms of nitrification inhibition) and to enable comparison between plates and batches of cultures, we calculated the relative nitrification. More in detail, all nitrite results were normalized towards both a negative control, containing no compound, and a positive control, containing the benchmark (100 μM DMP), using Equation 1. This normalization was done per multi-well plate and each plate contained 32 positive and 32 negative controls.
IC50 values, that is the concentration that inhibits 50% of the nitrification, were calculated after fitting a logistic curve to 8-point dose response data, using doses between 2 and 100 μM with 1.75 fold steps. […]

The subject of a further test is Nitrosospira multiformis. As to the kind of experiment: Nitrification inhibition assay with Nitrosospira multiformis (nitrite level after 24 h). It is filed as cell-based. The settings on record: Nitrosospira multiformis; for activity at 100 µM: 24 h, read-out: Nitrification at tested concentration (0 = maximum activity). As for the experimental part:
as §1, §2
Cultures were first 5 times overconcentrated in fresh 181-medium by centrifugation (4000 rpm, 15 min, 5° C.) in 50 mL centrifuge tubes (Cat. No. 430829, CentriStar™ Conical Centrifuge Tubes, Corning®). Per batch, all the cultures were pooled in one sterile Schott bottle and subsequently dispensed in 384-well plates (Cat. No. 781086, CELLSTAR® plate, Greiner BioOne; 50 μl/well) by use of a dispenser (Multidrop™ Combi Reagent Dispenser, Thermo Scientific™) that was first flushed with 181-medium. 0.5 μl of 99.99% DMSO (negative control—final concentration […] was added to the outer two columns on the left side of the plate and 0.5 μl of 10 mM DMP (3,4-dimethylpyrazole, positive control—final concentration 100 μM) was added to the outer two columns on the right side manually. Finally, 0.5 μl of candidate nitrification inhibitors (5 mM stock solutions in 99.99% DMSO—final concentration 50 μM) were added to the central wells using a pin tool on a Tecan robot (Freedom EVO®, Tecan). In between additions, the pins were washed in sequence with 99.5% DMSO, MilliQ water and 100% ethanol and air-dried. All plates were separately wrapped in Parafilm. Stacks of 4 plates were put on top of a 96-well plate filled with 100 μl MilliQ per well, covered with aluminum foil and shaken (±150 rpm) at 30° C. 24 h later, NO2− production was assessed. For this, the samples were first 100 times diluted by pipetting 3 μl of samples into 300 μl fresh growth medium in intermediate plates (Cat. No. 353077, Falcon® 96-well Clear Round Bottom Microplate, Corning®) to then mix 15 μl of the diluted samples with 15 μl Griess reagent in the wells of a transparent, flat bottom 384-well plate (Cat. No. X^7001, Low Profile Microplate, Molecular Devices) that was measured spectrophotometrically at 540 nm (EnVision, Perkin Elmer®).
as §3
IC50 values, that is the concentration that inhibits 50% of the nitrification, were calculated after fitting a logistic curve to 8-point dose response data, using doses between 2 and 100 μM with 1.75 fold steps. If a concentration of 2 μM already inhibited nitrification, the IC50 value could not be calculated. In that case, IC50 values represent the dose that gives inhibition closest to 50%.
The compounds of formula (I) and (II) were tested for their nitrification inhibition effect in two screens, using assays with the nitrifying bacteria N. europaea and N. multiformis. […]

A further test deals with Moorslede soil. Put plainly: In soil nitrification inhibition assay, Moorslede soil. As to conditions: soil, 120 h; 50 μM; 5 days; read-out: % Nitrification inhibition in soil (5 days of incubation, Moorslede soil) at indicated concentration. As for the experimental part:
Top layer (0 to 10 cm) soil samples were collected from different fields in Belgium (Merelbeke and Moorslede). Vegetation on the field trial was removed and samples were taken from different plots. All soil samples were mixed and sieved (mesh size 2.8 mm) to filter large debris and homogenize soil. The soil was stored at 5° C. in plastic containers covered with Saran foil to prevent changes in microbial community composition and to maintain the original soil water content.
Soil water content was determined by drying 20 g soil for 48 h in a 60° C. oven and measuring weight before and after drying. Based on the soil water content (±20%), compound solutions were prepared so that addition of 200 μl compound and 200 μl NH4Cl solution would result in a final compound concentration of 50 μM and a final NH4^+ concentration of 10 mM. Per treatment, 5 small pots were filled with 20 g soil. Next, the soil was treated first with the respective compound solution and then with the NH4Cl solution. Per tray, positive (50 μM DMP) and negative controls (DMSO) were included. Pots were incubated at 21° C. (6 a.m. to 10 p.m. light) for 7 days. Demineralized water was added to the soil every 2 to 3 days to a soil weight of 20 g. In the end, each sample of 20 g soil was dissolved in 100 ml 1M KCl and shaken for 1 hour, followed by filtration through Whatmann® paper. The filtrate was used to measure pH, NH4^+ and NO3− concentrations.
A set of examples was tested in the same conditions (Moorslede soil, 3 days of incubation) at a concentration of 50 μM.
Another set of examples was tested in different concentrations in Moorslede soil as well, and were sampled after 5 days.
The effect of 3H-1,3-thiazole-2-thione was tested in soil in accordance with the test described above in section 3.3.

[1] abbreviates: 8-point dose response, 2 to 100 μM, read-out: IC50.
The mark [2] stands for this setting: tested concentration 100 μM, normalized to DMSO (100%) and 100 μM DMP (0%).

Where two headings read alike, the source gives them in different places.

As usually defined, the IC50 is the point on the concentration scale where inhibition reaches its midpoint. On to `NCCCSc1nccs1` [Example 37], for which the figures for the IC50 with Nitrosomonas europaea (setting [1]) and in the test on Nitrosospira multiformis (setting [1]) were more than 100 µM and 44 µM, respectively. In addition, the figures for the activity at 100 µM with Nitrosomonas europaea (setting [2]) and in the test on Nitrosospira multiformis (setting [2]) were 58% and 7%, respectively.

As to `Cc1csc(SC2CCCCC2)n1` [Example 38], the IC50 in the test on Nitrosomonas europaea (setting [1]) and in the test on Nitrosospira multiformis (setting [1]) was more than 100 µM in each case. Further, the activity at 100 µM in the test on Nitrosomonas europaea (setting [2]) worked out at 92%; in the test on Nitrosospira multiformis (setting [2]), 53%.

For the compound `CSc1ncco1` [Example 39], the IC50 with Nitrosomonas europaea (setting [1]) is 26 µM; in the test on Nitrosospira multiformis (setting [1]), more than 100 µM. Further, the activity at 100 µM with Nitrosomonas europaea (setting [2]) is 22%; with Nitrosospira multiformis (setting [2]), 52%. Also, the inhibition at 50 µM with Moorslede soil came out at 62%.

As for `S=c1[nH]cco1` [Example 40], the figures for the IC50 in the test on Nitrosomonas europaea (setting [1]) and with Nitrosospira multiformis (setting [1]) were 4 µM and 3 µM, respectively. The activity at 100 µM with Nitrosomonas europaea (setting [2]) and in the test on Nitrosospira multiformis (setting [2]) was 0% in each case.

As for `CSC1=NCCO1` [Example 41], in the test on Nitrosomonas europaea, the IC50 is more than 100 µM and the activity at 100 µM came out at 88%. Also, in the test on Nitrosospira multiformis, the IC50 is more than 100 µM and the activity at 100 µM worked out at 68%.

`S=C1NC(c2ccccc2)CO1` (stereo not drawn) [Example 42]: the values for the IC50 in the test with Nitrosomonas europaea (setting [1]) and in the test on Nitrosospira multiformis (setting [1]) were 68 µM and less than 57 µM, respectively. Also, the figures for the activity at 100 µM with Nitrosomonas europaea (setting [2]) and in the test on Nitrosospira multiformis (setting [2]) were 40% and 12%, respectively.

Take `CC1(C)COC(=S)N1` [Example 43]: the IC50 came out at 7 µM in the test on Nitrosomonas europaea (setting [1]) and 20 µM with Nitrosospira multiformis (setting [1]). The activity at 100 µM in the test with Nitrosomonas europaea (setting [2]) and in the test on Nitrosospira multiformis (setting [2]) was 0% throughout.

For the compound `C=CC1CNC(=S)O1` (stereo not drawn) [Example 44], the results for the IC50 in the test on Nitrosomonas europaea (setting [1]) and in the test on Nitrosospira multiformis (setting [1]) were 2 µM and 24 µM, respectively. Moreover, the activity at 100 µM in the test on Nitrosomonas europaea (setting [2]) and with Nitrosospira multiformis (setting [2]) was 0% throughout.

For the origin of these results see patent US20230416168A1 (EUROCHEM ANTWERPEN, priority 2020, published 2023).
